From patent US20160108039A1, “TRIAZOLOPYRIDINES AS THROMBIN INHIBITORS FOR THE TREATMENT OF THROMBOEMBOLIC DISEASES” (BAYER PHARMA AKTIENGESELLSCHAFT, priority 2013, published 2016) come the findings set out here.

Assay [1] deals with T1, thrombin (Homo sapiens, UniProt P00734). The experiment in a line: Measurement of the thrombin inhibition in buffer. The assay is classed as biochemical. The settings on record: human thrombin 0.06 nmol/l in Tris buffer pH 7.4, 22° C., substrate Boc-Asp(OBzl)-Pro-Arg-AMC; in some cases means of individual determinations. The procedure:
To determine the thrombin inhibition of the substances listed above, a biochemical test system is constructed in which the conversion of a thrombin substrate is used for determining the enzymatic activity of human thrombin. Here, thrombin cleaves aminomethylcoumarin, which is measured fluorescently, from the peptic substrate. The determinations are carried out in microtitre plates.
Substances to be tested are dissolved in various concentrations in dimethyl sulphoxide and incubated for 15 min with human thrombin (0.06 nmol/l dissolved in 50 mmol/l of Tris buffer [C,C,C-tris(hydroxymethyl)aminomethane], 100 mmol/l of sodium chloride, 0.1% BSA [bovine serum albumin], pH 7.4) at 22° C. The substrate (5 μmol/l Boc-Asp(OBzl)-Pro-Arg-AMC from Bachem) is then added. After 30 min of incubation, the sample is excited at a wavelength of 360 nm and the emission is measured at 460 nm. The measured emissions of the test mixtures with test substance are compared to the control mixtures without test substance (only dimethyl sulphoxide instead of test substance in dimethyl sulphoxide) and IC50 values are calculated from the concentration/activity relationships. Representative activity data from this test are given in Table 1 below (in some cases as means of individual determinations): […]

The target in assay [2] is T1, thrombin. The experiment in a line: Thrombin-inhibitory activity in plasma samples (ecarin-activated). It counts as biochemical. As to conditions: citrate plasma, ecarin activation, fluorogenic thrombin substrate; read at about 70% of maximum signal (about 12 min); in some cases means. How it is done:
To determine the inhibition of thrombin in plasma samples, plasma prothrombinase is activated by ecarin. Thrombin activity and/or its inhibition by potential inhibitors is/are then measured fluorescently by addition of a substrate.
The substances to be tested are dissolved in various concentrations in dimethyl sulphoxide and diluted with water. In white 96-well flat-bottomed plates, 20 μl of substance dilution are mixed with 20 μl of ecarin solution (ecarin reagent, from Sigma E-0504, final concentration 20 mU per reaction) in Ca buffer (200 mM Hepes+560 mM sodium chloride+10 mM calcium chloride+0.4% PEG) or with 20 μl of Ca buffer (as unstimulated control). Furthermore, 20 μl of fluorogenic thrombin substrate (from Bachem 1-1120, final concentration 50 μmol/l) and 20 μl of citrate plasma (from Octapharma) are added, and the mixture is homogenized well. The plate is measured in a SpectraFluorplus Reader using a 360 nm excitation filter and a 465 nm emission filter every minute over 20 minutes. […] Representative activity data from this test are given in Table 2 below (in some cases as means of individual determinations): […]

The IC50 is the midpoint of a concentration-inhibition curve. Turning to `COc1cc(C(=O)N2CC(C)(CCO)OCC2(C)C)cn2nc(NCc3cccc(Cl)c3)nc12` (single isomer, unassigned) [Example 33, {2-[(3-Chlorobenzyl)amino]-8-methoxy[1,2,4]triazolo[1,5-a]pyridin-6-yl}[2-(2-hydroxyethyl)-2,5,5-trimethylmorpholin-4-yl]methanone], the IC50 in assay [1] was found to be 4.5 nM; in assay [2] it was 11 nM.

For `COc1cc(C(=O)N2CC(C)(CC(C)O)OCC2(C)C)cn2nc(NCc3cccc(Cl)c3)nc12` (single isomer, unassigned) [Example 34, {2-[(3-Chlorobenzyl)amino]-8-methoxy[1,2,4]triazolo[1,5-a]pyridin-6-yl}[2-(2-hydroxypropyl)-2,5,5-trimethylmorpholin-4-yl]methanone], the results for the IC50 in assay [1] and in assay [2] were 3.9 nM and 19 nM, respectively.

Regarding `COc1cc(C(=O)N2CC(C)(CC(C)O)OCC2(C)C)cn2nc(NCc3cccc(Cl)c3)nc12` (single isomer, unassigned) [Example 35, {2-[(3-Chlorobenzyl)amino]-8-methoxy[1,2,4]triazolo[1,5-a]pyridin-6-yl}[2-(2-hydroxypropyl)-2,5,5-trimethylmorpholin-4-yl]methanone], the IC50 is 2.4 nM in assay [1] and 8.7 nM in assay [2].

With `COc1cc(C(=O)N2CC(C)(CC(C)O)OCC2(C)C)cn2nc(NCc3cccc(Cl)c3)nc12` (single isomer, unassigned) [Example 36, {2-[(3-Chlorobenzyl)amino]-8-methoxy[1,2,4]triazolo[1,5-a]pyridin-6-yl}[2-(2-hydroxypropyl)-2,5,5-trimethylmorpholin-4-yl]methanone], the IC50 in assay [1] turned out to be 54 nM; in assay [2] it was 325 nM.

For the compound `COc1cc(C(=O)N2CC(C)(CC(C)O)OCC2(C)C)cn2nc(NCc3cccc(Cl)c3)nc12` (single isomer, unassigned) [Example 37, {2-[(3-Chlorobenzyl)amino]-8-methoxy[1,2,4]triazolo[1,5-a]pyridin-6-yl}[2-(2-hydroxypropyl)-2,5,5-trimethylmorpholin-4-yl]methanone], the values for the IC50 in assay [1] and in assay [2] were 67 nM and 112 nM, respectively.

As to `COc1cc(C(=O)N2CC(C)(CC(C)O)OCC2(C)C)cn2nc(NCc3cccc(Cl)c3)nc12` (single isomer, unassigned) [Example 39, {2-[(3-Chlorobenzyl)amino]-8-methoxy[1,2,4]triazolo[1,5-a]pyridin-6-yl}[2-(2-hydroxypropyl)-2,5,5-trimethylmorpholin-4-yl]methanone], the IC50 in assay [1] is 30 nM; in assay [2], 34 nM.

Consider `COc1cc(C(=O)N2CC(C)OCC2C(C)(C)O)cn2nc(NCc3cccc(Cl)c3)nc12` (single isomer, unassigned) [Example 40, {2-[(3-Chlorobenzyl)amino]-8-methoxy[1,2,4]triazolo[1,5-a]pyridin-6-yl}[5-(2-hydroxypropan-2-yl)-2-methylmorpholin-4-yl]methanone], for which the IC50 is 31 nM in assay [1] and 75 nM in assay [2].

For `COc1cc(C(=O)N2CC(C)(CC(C)O)OC[C@H]2C)cn2nc(NCc3cccc(Cl)c3)nc12` (single isomer, unassigned) [Example 41], the figures for the IC50 in assay [1] and in assay [2] were 1.3 nM and 4.1 nM, respectively.

Regarding `COc1cc(C(=O)N2CC(C)(C)OCC2CC(C)O)cn2nc(NCc3cccc(Cl)c3)nc12` (single isomer, unassigned) [Example 49, {2-[(3-Chlorobenzyl)amino]-8-methoxy[1,2,4]triazolo[1,5-a]pyridin-6-yl}[5-(2-hydroxypropyl)-2,2-dimethylmorpholin-4-yl]methanone], the IC50 in assay [1] turned out to be 19 nM; in assay [2], 24 nM.

With `COc1cc(C(=O)N2CC(C)(CCO)OCC2CF)cn2nc(NCc3cccc(Cl)c3)nc12` (single isomer, unassigned) [Example 53, {2-[(3-Chlorobenzyl)amino]-8-methoxy[1,2,4]triazolo[1,5-a]pyridin-6-yl}[5-(fluoromethyl)-2-(2-hydroxyethyl)-2-methylmorpholin-4-yl]methanone], the IC50 is 6.9 nM in assay [1] and 24 nM in assay [2].
